Measurements: PMC10374968, “Drosophila class-I myosins that can impact left-right asymmetry have distinct ATPase kinetics” (The Journal of Biological Chemistry, 2023)
Where two headings read alike, the source gives them in different places.

Key:
[1] = target: T1, myo1D (myosin-1D; myo31DF) (Drosophila melanogaster, UniProt Q23978); experiment: stopped-flow pyrene-actin fluorescence, slow-phase amplitude vs MgADP, quadratic fit; type: binding; parameters: full-length, C-terminal FLAG-Avi tags kept (biotinylated for gliding); baculovirus, Sf9 or Hi5 insect cells; heavy chain 117 kDa, calmodulin light chains; with Calmodulin (Gallus gallus, recombinant); Actin, alpha skeletal muscle (Oryctolagus cuniculus); conditions: actomyosin complex; chased with 1 mM MgATP; KMg25: 10 mM Mops pH 7.0, 25 mM KCl, 1 mM MgCl2, 1 mM EGTA, 1 mM DTT; 20 C
[2] = target: myo1C (myosin-1C; myo61F) (Drosophila melanogaster, UniProt Q23979); conditions: read-out: Myo1C; rapid-equilibrium binding step to actomyosin (printed in μM, used as association constant in Equation 2); KMg25 pH 7.0, 1 mM MgCl2; 20 C
Source text: stopped-flow MgATP-induced dissociation from pyrene-actin, hyperbolic fit on myo1C (myosin-1C; myo61F)

[3] = target: T1, myo1D (myosin-1D; myo31DF); conditions: read-out: Myo1D; rapid-equilibrium binding step to actomyosin (printed in μM, used as association constant in Equation 2); KMg25 pH 7.0, 1 mM MgCl2; 20 C
Source text: stopped-flow MgATP-induced dissociation from pyrene-actin, hyperbolic fit on myo1D (myosin-1D; myo31DF)

T1 sequence (Q23978 whole entry): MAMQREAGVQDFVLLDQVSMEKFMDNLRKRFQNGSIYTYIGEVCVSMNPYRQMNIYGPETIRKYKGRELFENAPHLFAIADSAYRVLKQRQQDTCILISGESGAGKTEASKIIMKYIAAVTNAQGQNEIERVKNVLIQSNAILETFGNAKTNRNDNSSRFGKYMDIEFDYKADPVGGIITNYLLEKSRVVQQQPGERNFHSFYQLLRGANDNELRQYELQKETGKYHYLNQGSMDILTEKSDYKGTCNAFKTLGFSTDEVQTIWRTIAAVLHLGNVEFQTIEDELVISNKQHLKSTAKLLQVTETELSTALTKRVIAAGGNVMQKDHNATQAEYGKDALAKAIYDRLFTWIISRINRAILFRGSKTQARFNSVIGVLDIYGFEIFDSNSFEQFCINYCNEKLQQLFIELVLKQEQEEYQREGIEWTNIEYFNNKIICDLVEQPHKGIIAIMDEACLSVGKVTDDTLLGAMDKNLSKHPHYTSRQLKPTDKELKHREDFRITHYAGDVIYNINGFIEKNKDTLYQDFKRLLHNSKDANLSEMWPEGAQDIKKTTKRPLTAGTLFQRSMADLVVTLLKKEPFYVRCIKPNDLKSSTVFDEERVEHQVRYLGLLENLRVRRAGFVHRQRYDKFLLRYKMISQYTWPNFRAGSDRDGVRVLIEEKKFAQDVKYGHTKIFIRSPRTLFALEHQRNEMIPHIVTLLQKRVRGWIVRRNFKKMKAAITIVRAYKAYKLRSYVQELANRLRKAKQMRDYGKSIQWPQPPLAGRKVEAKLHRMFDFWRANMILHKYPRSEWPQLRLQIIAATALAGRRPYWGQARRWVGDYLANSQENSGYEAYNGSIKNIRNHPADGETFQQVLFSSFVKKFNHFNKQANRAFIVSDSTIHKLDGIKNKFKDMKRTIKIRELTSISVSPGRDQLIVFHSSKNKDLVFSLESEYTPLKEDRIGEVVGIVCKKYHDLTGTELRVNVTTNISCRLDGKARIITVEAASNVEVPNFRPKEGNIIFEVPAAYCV
myo1C (myosin-1C; myo61F), sequence (Q23979 whole entry): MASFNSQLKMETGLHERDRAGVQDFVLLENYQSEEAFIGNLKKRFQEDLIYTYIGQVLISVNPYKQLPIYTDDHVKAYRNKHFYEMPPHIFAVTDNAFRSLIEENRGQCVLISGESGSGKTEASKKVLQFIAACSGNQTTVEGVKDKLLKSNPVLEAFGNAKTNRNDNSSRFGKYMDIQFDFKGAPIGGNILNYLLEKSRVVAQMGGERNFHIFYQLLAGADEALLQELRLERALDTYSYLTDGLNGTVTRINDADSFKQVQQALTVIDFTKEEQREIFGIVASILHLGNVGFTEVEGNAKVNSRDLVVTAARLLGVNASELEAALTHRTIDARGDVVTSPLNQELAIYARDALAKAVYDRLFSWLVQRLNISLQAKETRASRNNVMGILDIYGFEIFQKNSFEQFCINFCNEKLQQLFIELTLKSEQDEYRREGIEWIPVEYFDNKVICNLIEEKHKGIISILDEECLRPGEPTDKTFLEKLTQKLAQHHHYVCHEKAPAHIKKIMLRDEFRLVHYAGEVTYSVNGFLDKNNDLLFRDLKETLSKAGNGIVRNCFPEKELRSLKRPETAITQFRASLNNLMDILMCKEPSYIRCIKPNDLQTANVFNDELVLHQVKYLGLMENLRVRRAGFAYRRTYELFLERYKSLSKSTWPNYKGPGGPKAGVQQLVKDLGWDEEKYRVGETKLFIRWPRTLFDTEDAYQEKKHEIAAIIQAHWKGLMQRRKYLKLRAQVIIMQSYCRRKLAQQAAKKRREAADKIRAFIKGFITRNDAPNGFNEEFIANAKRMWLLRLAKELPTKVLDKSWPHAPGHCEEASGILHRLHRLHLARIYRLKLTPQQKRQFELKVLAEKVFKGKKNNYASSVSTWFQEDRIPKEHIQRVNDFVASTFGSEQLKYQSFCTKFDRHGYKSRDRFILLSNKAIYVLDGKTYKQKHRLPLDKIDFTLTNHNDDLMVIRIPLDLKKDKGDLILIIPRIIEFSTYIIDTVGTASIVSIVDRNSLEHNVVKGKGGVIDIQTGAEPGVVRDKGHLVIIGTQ

| SMILES | Kd [1] [µM] | Kd [2] [µM] | Kd [3] [µM] |
| --- | --- | --- | --- |
| Nc1ncnc2c1ncn2[C@@H]1O[C@H](COP(=O)(O)OP(=O)(O)O)[C@@H](O)[C@H]1O [MgADP] | 0.044 ± 0.002 | – | – |
| Nc1ncnc2c1ncn2[C@@H]1O[C@H](COP(=O)(O)OP(=O)(O)OP(=O)(O)O)[C@@H](O)[C@H]1O [MgATP] | – | 73 ± 11 | 118 ± 15 |
